Measured values from patent US6603014B1, “Use of cyclic enamines as light protection agents” (BASF Aktiengesellschaft, priority 1999, dated 2003).

Test: UV absorption properties (λmax and specific absorbance E 1/1) of the light protection agents
Format: physicochemical
Parameters: unit not given here
From the text: Further Examples 2 to 23 as in Tables 1, 2 and 3 are obtained analogously. Substituents in the aromatic rings can also be introduced later.

[1] = Table 1, specific absorbance at λmax
[2] = Table 2, specific absorbance at λmax
[3] = Table 3, specific absorbance at λmax

Row | SMILES | λmax (Table 1, UV absorption maximum) | E^11 [1] | other results
1 | COC(=O)C(C#N)=C1Nc2ccccc2S1 [Example 1] | 336 | 1723 | –
2 | N#CC(C#N)=C1Nc2ccccc2N1 [Example 2] | 314 | 2297 | –
3 | COC(=O)C(C#N)=C1Nc2ccccc2N1 [Example 3] | 316 | 1986 | –
4 | COc1ccc2c(c1)NC(=C(C#N)C#N)N2 [Example 4] | 326 | 1784 | –
5 | COC(=O)C(C#N)=C1Nc2ccc(OC)cc2N1 [Example 5] | 328 | 1601 | –
6 | CCOC(=O)c1ccc2c(c1)NC(=C(C#N)C#N)N2 [Example 6] | 334 | 821 | –
7 | CCOC(=O)c1ccc2c(c1)NC(=C(C#N)C(=O)OC)N2 [Example 7] | 332 | 952 | –
8 | Cc1ccc2c(c1)NC(=C(C#N)C#N)N2 [Example 8] | 318 | 2055 | –
9 | COC(=O)C(C#N)=C1Nc2ccc(C)cc2N1 [Example 9] | 320 | 1854 | –
10 | N#CC(C#N)=C1Nc2ccccc2O1 [Example 10] | 308 | 1844 | –
11 | COC(=O)C(C#N)=C1Nc2ccccc2O1 [Example 11] | 310 | 1778 | –
12 | N#CC(C#N)=C1Nc2ccccc2S1 [Example 12] | 334 | 1776 | –
13 | CCCCC(CC)COC(=O)/C(C#N)=C1\Sc2ccccc2N1C (stereo not shown) [Example 13] | – | – | λmax (Table 2, UV absorption maximum): 340; E^11 [2]: 1150
14 | CC1CC(OC(=O)C(C#N)=C2Sc3ccccc3N2C)CC(C)(C)C1 (stereo not shown) [Example 14] | – | – | λmax (Table 2, UV absorption maximum): 340; E^11 [2]: 1090
15 | CCCCCCN1C(=C(C#N)C(=O)OCC(CC)CCCC)Sc2ccccc21 (stereo not shown) [Example 15] | – | – | λmax (Table 2, UV absorption maximum): 340; E^11 [2]: 830
16 | CCCCCCN1C(=C(C#N)C(=O)OC2CC(C)CC(C)(C)C2)Sc2ccccc21 (stereo not shown) [Example 16] | – | – | λmax (Table 2, UV absorption maximum): 340; E^11 [2]: 790
17 | CCCCCCN1C(=C(C#N)C(=O)OC)Sc2ccccc21 [Example 17] | – | – | λmax (Table 2, UV absorption maximum): 340; E^11 [2]: 1200
18 | CCCCOC(=O)C(C#N)=C1Sc2ccccc2N1CCCC [Example 18] | – | – | λmax (Table 2, UV absorption maximum): 340; E^11 [2]: 1250
19 | COC(=O)/C(C#N)=C1\Sc2ccccc2N1CCCS(=O)(=O)O [Example 20] | – | – | λmax (Table 3, UV absorption maximum): 340; E^11 [3]: 1200
20 | COC(=O)/C(C#N)=C1\Nc2ccc(C(=O)c3ccccc3)cc2N1 [Example 21] | – | – | λmax (Table 3, UV absorption maximum): 348; E^11 [3]: 740
21 | CCCCCCN1C(=C(C#N)C(=O)OC)N(CCCCCC)c2ccccc21 [Example 22] | – | – | λmax (Table 3, UV absorption maximum): 325; E^11 [3]: 970
22 | CN1/C(=C(\C#N)C(=O)OCCS(=O)(=O)O)Sc2ccccc21 [Example 23] | – | – | λmax (Table 3, UV absorption maximum): 340; E^11 [3]: 1160
23 | COC(=O)C(C#N)=c1[nH]c2cccc3cccc([nH]1)c32 [Example 24] | – | – | λmax (Table 3, UV absorption maximum): 296; E^11 [3]: 1503
